Results on five molecules are retold here after US20140323757A1, “Biosurfactant Isolated from Yeast” (Gyeongbuk Institute of Marine Bio-industry, priority 2013, published 2014).

Each structure is given as a SMILES string.

The data set can be described thus: Surface tension measurement. Type of data set: physicochemical. More on the design: unit not given here. As to conditions: at 1.5 mg/L. The text has this:
Surface tension is increased in proportion to molecular interaction, and hydrocarbons or organic polymers show low surface tension due to their weak molecular interaction. Surface tension is represented by N/m. Since surfactants have hydrophobic and hydrophilic groups, when added to water, its surface tension is lowered. […] The compounds represented by […]
With `CCCCCC(=O)OC1C(O)C(O)C(O)C(O)C1OC(=O)CCCCC` (single isomer, unassigned) [Compound A57-4-gly-2], the “Surface Tension” value worked out at 22.40.

`CCCCCC(=O)OC1C(O)C(O)C(O)C(O)C1OC(=O)CCCCC` (single isomer, unassigned) [Compound A57-4-gly-5]: the “Surface Tension” value came out at 22.44.

For `CCCCCC(=O)OC1C(O)C(O)C(O)C(OC(C)=O)C1OC(=O)CCCCC` (centres unmarked) [Compound A57-4-gly-1], the “Surface Tension” value is 22.90.

With `CCCCCC(=O)OC1C(O)C(O)C(O)C(OC(=O)CCCCC)C1OC(C)=O` (centres unmarked) [Compound A57-4-gly-3], the “Surface Tension” value was 28.71.

Turning to `CCCCCC(=O)OC1C(O)C(O)C(O)C(OC(=O)CCCCC)C1OC(=O)CCCCC` (centres unmarked) [Compound A57-4-gly-4], the “Surface Tension” value was found to be 25.28.
